How the values were obtained:
Assay in all cases: HPLC of p-coumaric acid formed in yeast culture
Type in all cases: cell-based
Settings in all cases: 0.2 mM substrate fed to yeast culture, 28 °C, 1 h; product p-coumaric acid; empty vector control
CsC4Hc = biological target: T1, CsC4Hc (Camellia sinensis, UniProt A0A286QXW5)
T1 construct: gene C4Hc; cloning reverse primer keeps the stop codon
T1 sequence (A0A286QXW5 1-544): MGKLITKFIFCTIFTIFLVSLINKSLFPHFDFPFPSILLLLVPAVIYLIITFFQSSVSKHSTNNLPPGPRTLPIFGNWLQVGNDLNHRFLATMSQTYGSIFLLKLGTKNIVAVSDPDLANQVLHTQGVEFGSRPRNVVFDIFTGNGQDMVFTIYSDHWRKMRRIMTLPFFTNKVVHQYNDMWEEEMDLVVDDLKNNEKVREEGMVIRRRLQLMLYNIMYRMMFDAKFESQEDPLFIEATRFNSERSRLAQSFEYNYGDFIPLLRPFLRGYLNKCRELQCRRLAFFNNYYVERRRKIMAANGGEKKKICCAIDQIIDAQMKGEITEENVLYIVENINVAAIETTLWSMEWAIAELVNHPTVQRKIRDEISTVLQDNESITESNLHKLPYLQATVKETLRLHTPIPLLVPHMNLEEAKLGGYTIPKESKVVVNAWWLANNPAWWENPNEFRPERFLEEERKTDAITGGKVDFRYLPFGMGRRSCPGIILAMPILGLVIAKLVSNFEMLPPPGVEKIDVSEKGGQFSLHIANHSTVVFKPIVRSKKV

CsC4Hb = biological target: T2, CsC4Hb (Camellia sinensis, UniProt A0A286QXW8)
T2 construct: gene C4Hb; cloning reverse primer keeps the stop codon
T2 sequence (A0A286QXW8 1-505): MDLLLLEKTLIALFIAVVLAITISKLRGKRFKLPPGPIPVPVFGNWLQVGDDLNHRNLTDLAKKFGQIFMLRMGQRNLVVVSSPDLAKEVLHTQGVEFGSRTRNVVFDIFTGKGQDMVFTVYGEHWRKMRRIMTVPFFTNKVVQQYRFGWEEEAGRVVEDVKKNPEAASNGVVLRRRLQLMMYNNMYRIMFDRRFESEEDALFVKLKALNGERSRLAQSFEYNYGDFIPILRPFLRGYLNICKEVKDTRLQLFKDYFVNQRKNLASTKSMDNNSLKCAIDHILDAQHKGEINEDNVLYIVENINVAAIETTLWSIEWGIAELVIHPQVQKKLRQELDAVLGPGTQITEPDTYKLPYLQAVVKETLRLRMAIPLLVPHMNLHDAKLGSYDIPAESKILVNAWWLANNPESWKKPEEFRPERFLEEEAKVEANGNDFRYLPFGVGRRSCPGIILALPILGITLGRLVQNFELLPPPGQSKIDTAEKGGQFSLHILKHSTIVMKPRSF

CsC4Ha = biological target: T3, CsC4Ha (Camellia sinensis, UniProt A0A286QXW9)
T3 construct: gene C4Ha; cloning reverse primer keeps the stop codon
T3 sequence (A0A286QXW9 1-505): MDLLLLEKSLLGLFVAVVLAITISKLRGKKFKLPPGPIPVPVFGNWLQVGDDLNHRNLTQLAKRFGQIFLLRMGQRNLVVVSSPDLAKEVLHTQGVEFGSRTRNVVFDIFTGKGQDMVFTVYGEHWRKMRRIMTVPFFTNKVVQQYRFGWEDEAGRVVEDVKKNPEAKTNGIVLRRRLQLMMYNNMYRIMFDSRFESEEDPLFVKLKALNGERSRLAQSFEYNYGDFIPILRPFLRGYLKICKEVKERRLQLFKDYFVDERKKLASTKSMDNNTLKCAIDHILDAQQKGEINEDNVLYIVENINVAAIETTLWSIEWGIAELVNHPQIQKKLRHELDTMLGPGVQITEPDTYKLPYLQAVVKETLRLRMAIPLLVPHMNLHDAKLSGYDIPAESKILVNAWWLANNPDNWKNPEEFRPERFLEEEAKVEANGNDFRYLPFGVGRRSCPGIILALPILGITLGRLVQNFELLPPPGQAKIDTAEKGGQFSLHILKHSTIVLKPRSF

O=C(O)/C=C/c1ccccc1 [trans-cinnamic acid]
HPLC of p-coumaric acid formed in yeast culture (CsC4Hc): three recombinant CsC4Hs are able to convert t-cinnamate to yield p-coumarate when expressed in yeast | HPLC of p-coumaric acid formed in yeast culture (CsC4Hb): three recombinant CsC4Hs are able to convert t-cinnamate to yield p-coumarate when expressed in yeast | HPLC of p-coumaric acid formed in yeast culture (CsC4Ha): three recombinant CsC4Hs are able to convert t-cinnamate to yield p-coumarate when expressed in yeast
